What was measured:
PDE = details: read-out: PDE inhibition activity IC50; cited from earlier work
[1] = tested on: colon cancer cell line HT29; details: read-out: cytotoxic effect IC50; cited from earlier work
AChE = details: read-out: AChE inhibition IC50; cited from earlier work
PDE5A1 = details: read-out: PDE5A1 inhibition IC50; cited from earlier work
[2] = tested on: epidermoid carcinoma A-431; assay: MTT cell viability assay, A-431; format: cell-based, human; details: Homo sapiens; A-431, MTT, 72 h; median (95% Confidence Intervals)
Protocol: (§1) The following human cell lines were used in this study: (i) epidermoid carcinoma A-431 (ATCC® CRL-1555), (ii) lung carcinoma A549 (ATCC® CCL-185), (iii) colorectal carcinoma HCT116 (ATCC® CCL-247), (iv) HCT116p53^−/−, (v) glioblastoma U-87 MG (ATCC® HTB-14), (vi) glioblastoma U-251 MG (ECACC 09063001), (vii) breast adenocarcinoma MCF7 (ATCC® HTB-22), (viii) breast adenocarcinoma MDA-MB-231 (ECACC 92020424), (ix) papillomavirus-related cervical squamous cell carcinoma SKG-IIIa (RRID:CVCL_1704), (x) cervical adenocarcinoma HeLa (ATCC® CCL-2), (xi) bone osteosarcoma U-2 OS (ATCC® HTB-96), (xii) hepatocellular carcinoma HEPG2 (ATCC® HB-8065), (xiii) larynx squamous cell carcinoma BICR 18 (ECACC 06051601), (ix) kidney HEK 293T (ATCC® CRL-11268), (xv) normal lung fibroblasts MRC-5 (ATCC® CCL-171), (xvi) normal fibroblasts BJ (ATCC® CRL-2522). The HCT116p53^−/− cell line was a kind gift from professor Bert Vogelstein (John Hopkin’s University, Baltimore, MD, USA). The remaining cell lines were purchased from ATCC (Manassas, VA, USA) or Sigma-Aldrich by Merck (Darmstadt, Germany).
(§2) Cells were cultured in minimal or Dulbecco’s modified Eagle’s or Ham’s F10 medium supplemented with 10% fetal bovine serum (Gibco by Thermo Fisher Scientific, Waltham, MA, USA) and (for BICR 18) 0.4 μg/mL hydrocortizone (Sigma-Aldrich by Merck, Darmstadt, Germany) under standard culture conditions (37 °C, 5% CO2) in a humidified incubator with an atmospheric oxygen.
(§3) The viability of cells was assayed by measuring the conversion of MTT (3-(4,5-dimethylthiazol-2-yl)-2,5-diphenyltetrazolium bromide) to the formazan (the rate of this reaction is proportional to the number of surviving cells). Cells were seeded in a 96-well plate at a density of 2500–3500 cells per well, 24 h before treatment. […] MTT stock solution (Sigma-Aldrich) was added at the final concentration 0.5 mg/mL. After 4 h of incubation at 37 °C, water-insoluble formazan was dissolved in a lysis buffer containing 20% SDS, 50% DMF, 2.5% hydrochloric acid and 2.5% acetic acid. Optical densities were measured at 570 nm using a scanning multi-well spectrophotometer ([…] Detection Platform; Beckman Coulter, Brea, CA, USA). At least three independent experiments of viability were conducted.

lung carcinoma A549 = assay: MTT cell viability assay, A549; format: cell-based, human; details: Homo sapiens, 72 h, median (95% Confidence Intervals)
Protocol: as §1, §2, §3

[3] = tested on: colorectal carcinoma HCT116; assay: MTT cell viability assay, HCT116; format: cell-based, human; details: Homo sapiens, HCT-116, 72 h, median (95% Confidence Intervals)
Protocol: as §1, §2, §3

[4] = tested on: colorectal carcinoma HCT116p53^−/−; assay: MTT cell viability assay, HCT116p53−/−; format: cell-based, human; details: Homo sapiens, 72 h, median (95% Confidence Intervals)
Protocol: as §1, §2, §3

glioblastoma U-87 MG = assay: MTT cell viability assay, U-87 MG; format: cell-based, human; details: Homo sapiens, 72 h, median (95% Confidence Intervals)
Protocol: as §1, §2, §3

glioblastoma U-251 MG = assay: MTT cell viability assay, U-251 MG; format: cell-based, human; details: Homo sapiens, 72 h, median (95% Confidence Intervals)
Protocol: as §1, with “The remaining cell lines were purchased from ATCC (Manassas, VA, USA) or Sigma-Aldrich by Merck (Darmstadt, Germany).” left out
The viability of cells was assayed by measuring the conversion of MTT (3-(4,5-dimethylthiazol-2-yl)-2,5-diphenyltetrazolium bromide) to the formazan (the rate of this reaction is proportional to the number of surviving cells). […] Optical densities were measured at 570 nm using a scanning multi-well spectrophotometer ([…] Detection Platform; Beckman Coulter, Brea, CA, USA). […]

[5] = tested on: breast adenocarcinoma MCF7; assay: MTT cell viability assay, MCF7; format: cell-based, human; details: Homo sapiens, 72 h, median (95% Confidence Intervals)
Protocol: as §1, §2, §3

[6] = tested on: breast adenocarcinoma MDA-MB-231; assay: MTT cell viability assay, MDA-MB-231; format: cell-based, human; details: Homo sapiens; MDA-MB-231, MTT, 72 h; median (95% Confidence Intervals)
Protocol: as §1, §2, §3

[7] = tested on: cervical squamous cell carcinoma SKG-IIIa; assay: MTT cell viability assay, SKG-IIIa; format: cell-based, human; details: Homo sapiens, SKGIIIa, 72 h, median (95% Confidence Intervals)
Protocol: as §1, §2, §3

[8] = tested on: cervical adenocarcinoma HeLa; assay: MTT cell viability assay, HeLa; format: cell-based, human; details: Homo sapiens, 72 h, median (95% Confidence Intervals)
Protocol: as §1, §2, §3

bone osteosarcoma U-2 OS = assay: MTT cell viability assay, U-2 OS; format: cell-based, human; details: Homo sapiens, U2OS, 72 h, median (95% Confidence Intervals)
Protocol: as §1, §2, §3

[9] = tested on: hepatocellular carcinoma HEPG2; assay: MTT cell viability assay, HEPG2; format: cell-based, human; details: Homo sapiens, 72 h, median (95% Confidence Intervals)
Protocol: as §1, §2, §3

[10] = tested on: larynx squamous cell carcinoma BICR 18; assay: MTT cell viability assay, BICR 18; format: cell-based, human; details: Homo sapiens; BICR 18, MTT, 72 h; median (95% Confidence Intervals)
Protocol: as §1, §2, §3

kidney HEK 293T = assay: MTT cell viability assay, HEK 293T; format: cell-based, human; details: Homo sapiens, 72 h, median (95% Confidence Intervals)
Protocol: as §1, §2, §3

[11] = tested on: normal lung fibroblasts MRC-5; assay: MTT cell viability assay, MRC-5; format: cell-based, human; details: Homo sapiens, MRC5; MRC-5, MTT, 72 h; median (95% Confidence Intervals)
Protocol: as §1, §2, §3

normal fibroblasts BJ = assay: MTT cell viability assay, BJ; format: cell-based, human; details: Homo sapiens, Fibroblast, 72 h, median (95% Confidence Intervals)
Protocol: as §1, §2, §3

[12] = tested on: blood platelet aggregation; assay: platelet aggregation in platelet-rich plasma (light transmittance aggregometry, collagen + DEA-NO); format: cell-based; details: Homo sapiens, 10 μM compound, 500 nM DEA-NO, 2 μg/mL collagen, vs DMSO + DEA-NO
Text: Nitric oxide is one of the main physiological antiplatelet molecules secreted by vascular endothelium. It stimulates intraplatelet production of cGMP. This secondary messenger is then decomposed in platelets by the activity of two out of three PDE isoforms which are detected in platelets, namely by PDE2 and PDE5, while the other isoform (PDE3) is mostly involved in cAMP hydrolysis. Inhibitors of these phosphodiesterases increase intraplatelet concentration of cGMP and thus potentiate the antiplatelet effect of NO [52]. […]
Multiplate test cells for turbidimetric aggregometry and collagen were purchased from Chronolog Co (Havertown, PA, USA). […] DEA-NO was added to the final concentration of 500 nM, and shortly after, collagen was added to each sample to a final concentration of 2 μg/mL to induce platelet aggregation, which was thereafter monitored for 10 min using an optical aggregometer Chrono-Log 490-2D (Chrono-Log, Havertown, PA, USA). The total area under the aggregation curve (AUC) and the maximal value of platelet aggregation (Amax,U) was recorded. […]
Shortly prior to measurement, 500 nM DEA-NO was added, followed by 2 μg/mL collagen. Percentage of inhibition of platelet response was calculated in comparison to a sample treated with DMSO and DEA-NO on the basis of maximal value of platelet aggregation. […]

PDE5 = details: read-out: earlier reported IC50 values for PDE5; cited from earlier work

In the case of CCN1CC(=O)N2C(Cc3c([nH]c4ccccc34)C2c2ccccc2Br)C1=O (stereo not shown) [Compound 3], the IC50 (PDE) is listed as 0.06 µM and the IC50 [1] is listed as 25.5 µM.
For O=C1C2Cc3c([nH]c4ccccc34)C(c3ccc4c(c3)OCO4)N2C(=O)CN1CCC1CCN(Cc2ccccc2)CC1 (stereo not shown) [Compound 5], the IC50 (AChE) is given as 0.032 µM and the IC50 (PDE5A1) is given as 1.53 µM.
Work on CN1CC(=O)N2[C@H](c3ccc4c(c3)OCO4)c3[nH]c4ccccc4c3C[C@@H]2C1=O [Tadalafil, reference compound] yielded an IC50 [2] of 20.4 µM, an IC50 (lung carcinoma A549) of 51.5 µM and an IC50 [3] of 27.2 µM. It also gave an IC50 [4] of 19.8 µM, an IC50 (glioblastoma U-87 MG) of 40.7 µM and an IC50 (glioblastoma U-251 MG) of 44.1 µM. The IC50 [5] was 55.3 µM, the IC50 [6] was 87.6 µM and the IC50 [7] was 35.1 µM. The IC50 [8] was 42.3 µM, the IC50 (bone osteosarcoma U-2 OS) was 35.1 µM and the IC50 [9] was 46.6 µM. For the same molecule, the IC50 [10] was 52.5 µM, the IC50 (kidney HEK 293T) was 31 µM and the IC50 [11] was 28.7 µM. For the same molecule, the IC50 (normal fibroblasts BJ) was 40.5 µM, the inhibition at 10 µM [12] was roughly 50% and the IC50 (PDE5) was […].
